Our source for the EC50 values is paper PMC8478151 (European journal of pharmacology, 2021).

Structures are written as SMILES. Counter-ions that a name gives are not always drawn.

The target in the assay is α7 nicotinic acetylcholine receptor (Homo sapiens, UniProt P36544). It is filed as cell-based.
α7 nicotinic acetylcholine receptor, sequence (P36544 23-502): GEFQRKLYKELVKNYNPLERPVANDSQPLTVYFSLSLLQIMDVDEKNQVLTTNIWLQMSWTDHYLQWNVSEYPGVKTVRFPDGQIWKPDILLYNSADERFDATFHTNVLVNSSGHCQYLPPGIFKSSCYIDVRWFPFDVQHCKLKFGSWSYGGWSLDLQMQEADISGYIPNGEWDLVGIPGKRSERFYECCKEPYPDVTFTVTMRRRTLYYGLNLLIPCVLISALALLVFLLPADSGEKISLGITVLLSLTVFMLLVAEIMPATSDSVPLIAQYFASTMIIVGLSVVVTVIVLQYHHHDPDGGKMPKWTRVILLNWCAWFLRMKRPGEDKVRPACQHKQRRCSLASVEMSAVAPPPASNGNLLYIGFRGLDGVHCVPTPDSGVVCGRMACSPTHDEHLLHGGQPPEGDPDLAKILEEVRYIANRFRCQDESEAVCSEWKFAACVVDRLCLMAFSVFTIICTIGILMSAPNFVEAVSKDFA

For `O=C(c1ccc(-c2cccc(C(F)(F)F)c2)o1)N1CCN2CCC1CC2` [NS6740, 1,4-diazabicyclo[3.2.2]nonan-4-yl(5-(3-(trifluoromethyl)-phenyl)-furan-2-yl)methanone hydrochloride], the response was half-maximal at 420 nM (EC50).

One may read the EC50 as the concentration giving half of the maximal effect. A low value points to higher potency in that assay.
